Experiment [1] concerns pY705-STAT3 in Peripheral Blood Mononuclear Cells (PBMC). Kind of experiment: MSD-pSTAT-PBMC Assay (pSTAT3, IL-6 stimulated). It counts as cell-based, Human. Particulars: compound 3 hrs, then 10 ng/mL IL-6 for 10 min. Put shortly:
(§1)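 Phospho-STAT readout used MSD electrochemiluminescence with total STAT3 or STAT6 capture in lysates of cryopreserved human PBMCs. Cells had 3 h compound exposure before a 10 min cytokine pulse: IL-6 10 ng/mL for pSTAT3, IL-4 1 ng/mL for pSTAT6. IC50 came from background-subtracted, DMSO-normalised signal, with categories A≤100 nM up to D>3 μM.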

In experiment [2] the test system is pY641-STAT6 in Peripheral Blood Mononuclear Cells (PBMC). Kind of experiment: MSD-pSTAT-PBMC Assay (pSTAT6, IL-4 stimulated). It is filed as cell-based, Human. As to conditions: compound 3 hrs, then 1 ng/mL IL-4 for 10 min. Put shortly:
as §1

Each structure is given as a SMILES string. A value given as a limit tells only on which side of the number the result lay.

Turning to `CCCC(=O)SCCOP(=O)(OCCSC(=O)CCC)C(F)(F)c1ccc2ccc(C(=O)N[C@H]3CN(C(C)=O)CC[C@H]4CC[C@@H](C(=O)N5CC(c6cc[nH]c(=O)c6)CC56CC6)N4C3=O)cc2c1` (stereo partly drawn) [Compound 332, S,S′-(((((7-(((5S,8S,10aR)-3-acetyl-6-oxo-8-(6-(2-oxo-1,2-dihydropyridin-4-yl)-4-azaspiro[2.4]heptane-4-carbonyl)decahydropyrrolo[1,2-a][1,5]diazocin-5-yl)carbamoyl)naphthalen-2-yl)difluoromethyl)phosphoryl)bis(oxy))bis(ethane-2,1-diyl))dibutanethioate], the IC50 (in general, the midpoint of a concentration-inhibition curve) is above 3 µM in experiment [1] (Homo sapiens) and at most 0.1 µM in experiment [2] (Homo sapiens).

For the compound `CCCC(=O)SCCOP(=O)(OCOC(=O)OC(C)C)C(F)(F)c1ccc2ccc(C(=O)N[C@H]3CCN(CC(F)F)C[C@H]4CC[C@@H](C(=O)N5CC(c6cc[nH]c(=O)c6)CC56CC6)N4C3=O)cc2c1` (stereo partly drawn) [Compound 334, S-(2-((((7-(((5S,8S,10aR)-2-(2,2-difluoroethyl)-6-oxo-8-(6-(2-oxo-1,2-dihydropyridin-4-yl)-4-azaspiro[2.4]heptane-4-carbonyl)decahydropyrrolo[1,2-a][1,4]diazocin-5-yl)carbamoyl)naphthalen-2-yl)difluoromethyl) (((isopropoxycarbonyl)oxy)methoxy)phosphoryl)oxy)ethyl)butanethioate], the half-inhibitory concentration (IC50) was 0.1 to 1 µM in experiment [1] (Homo sapiens) and at most 0.1 µM in experiment [2] (Homo sapiens).

Regarding `CCCC(=O)SCCOP(=O)(OCCSC(=O)CCC)C(F)(F)c1ccc2ccc(C(=O)N[C@H]3CCN(CC(F)F)C[C@H]4CC[C@@H](C(=O)N5CC(c6cc[nH]c(=O)c6)CC56CC6)N4C3=O)cc2c1` (stereo partly drawn) [Compound 335, S,S′-(((((7-(((5S,8S,10aR)-2-(2,2-difluoroethyl)-6-oxo-8-(6-(2-oxo-1,2-dihydropyridin-4-yl)-4-azaspiro[2.4]heptane-4-carbonyl)decahydropyrrolo [1,2-a][1,4]diazocin-5-yl)carbamoyl)naphthalen-2-yl)difluoromethyl)phosphoryl)bis(oxy))bis(ethane-2,1-diyl))dibutanethioate], the results for the 50% inhibitory concentration (IC50) in experiment [1] (Homo sapiens) and in experiment [2] (Homo sapiens) were 1 to 3 µM and at most 0.1 µM, respectively.

Take `Cc1ccc2[nH]nc(C(=O)N3CC[C@H]4CC[C@@H](C(=O)N(C)C)N4C(=O)[C@@H](NC(=O)c4cc5cc(CP(=O)(N[C@@H](C)C(=O)OC(C)C)Oc6ccccc6)ccc5s4)C3)c2c1` (stereo partly drawn) [Compound 337, isopropyl(((2-(((5S,8S,10aR)-8-(dimethylcarbamoyl)-3-(5-methyl-1H-indazole-3-carbonyl)-6-oxodecahydropyrrolo[1,2-a][1,5]diazocin-5-yl)carbamoyl)benzo [b]thiophen-5-yl)methyl)(phenoxy)phosphoryl)-L-alaninate]: the concentration for half-maximal inhibition (IC50) in experiment [1] (Homo sapiens) and in experiment [2] (Homo sapiens) was above 3 µM each time.

On to `CC(C)(C)C(=O)OCOP(=O)(OCOC(=O)C(C)(C)C)C(F)(F)c1ccc2ccc(C(=O)NC3CN(CC(F)F)CCC4CCC(C(=O)N5CC(C#N)C(c6cc(F)cc(F)c6)C5)N4C3=O)cc2c1` [Compound 344, ((((7-(((5S,8S,10aR)-8-((rel-trans)-3-cyano-4-(3,5-difluorophenyl)pyrrolidine-1-carbonyl)-3-(2,2-difluoroethyl)-6-oxodecahydropyrrolo[1,2-a][1,5]diazocin-5-yl)carbamoyl)naphthalen-2-yl)difluoromethyl)phosphoryl)bis(oxy)) bis(methylene) bis(2,2-dimethylpropanoate)], for which the results for the IC50 in experiment [1] and in experiment [2] were 1 to 3 µM and 0.1 to 1 µM, respectively.

As for `CC(C)(C)C(=O)OCOP(=O)(OCOC(=O)C(C)(C)C)C(F)(F)c1ccc2ccc(C(=O)NC3CN(CC(F)F)CCC4CCC(C(=O)N5CCC(c6ccccc6)C(C#N)C5)N4C3=O)cc2c1` [Compound 345, ((((7-(((5S,8S,10aR)-8-((rel-trans)-3-cyano-4-phenylpiperidine-1-carbonyl)-3-(2,2-difluoroethyl)-6-oxodecahydropyrrolo[1,2-a][1,5]diazocin-5-yl)carbamoyl)naphthalen-2-yl)difluoromethyl)phosphoryl)bis(oxy)) bis(methylene) bis(2,2-dimethylpropanoate)], the half-inhibitory concentration (IC50) in experiment [1] lay in the range of 1 to 3 µM; in experiment [2], 0.1 to 1 µM.

With `CCCC(=O)SCCOP(=O)(OCCSC(=O)CCC)C(F)(F)c1ccc2ccc(C(=O)N[C@H]3CN(CC(F)F)CC[C@H]4CC[C@@H](C(=O)N(C)C5CCN(S(C)(=O)=O)CC5)N4C3=O)cc2c1` [Compound 347, S,S′-(((((7-(((5S,8S,10aR)-3-(2,2-difluoroethyl)-8-(methyl(1-(methylsulfonyl)piperidin-4-yl)carbamoyl)-6-oxodeca hydropyrrolo[1,2-a][1,5]diazocin-5-yl)carbamoyl)naphthalen-2-yl)difluoromethyl)phosphoryl)bis(oxy))bis(ethane-2,1-diyl))dibutanethioate], the concentration for half-maximal inhibition (IC50) in experiment [1] (Homo sapiens) and in experiment [2] (Homo sapiens) was 0.1 to 1 µM in each case.

Regarding `CC(C)(C)C(=O)OCOP(=O)(OCOC(=O)C(C)(C)C)C(F)(F)c1ccc2sc(C(=O)N[C@H]3CN(CC(F)F)CC[C@H]4CC[C@@H](C(=O)N5CC(C(=O)N6CCOCC6)C5)N4C3=O)cc2c1` [Compound 350, ((((2-(((5S,8S,10aR)-3-(2,2-difluoroethyl)-8-(3-(morpholine-4-carbonyl)azetidine-1-carbonyl)-6-oxodecahydropyrrolo[1,2-a][1,5]diazocin-5-yl)carbamoyl)benzo[b]thiophen-5-yl)difluoromethyl)phosphoryl)bis (oxy))bis(methylene) bis(2,2-dimethylpropanoate)], the half-inhibitory concentration (IC50) in experiment [1] (Homo sapiens) is at most 0.1 µM; in experiment [2], 0.1 to 1 µM.

As to `CC(C)(C)C(=O)OCOP(=O)(OCOC(=O)C(C)(C)C)C(F)(F)c1ccc2sc(C(=O)N[C@H]3CN(CC(F)F)CC[C@H]4CC[C@@H](C(=O)N5CC(C(=O)N6CCOCC6)C5)N4C3=O)cc2c1` [Compound 351, ((((2-(((5S,8S,10aR)-3-(2,2-difluoroethyl)-8-(3-(morpholine-4-carbonyl)azetidine-1-carbonyl)-6-oxodecahydropyrrolo[1,2-a][1,5]diazocin-5-yl)carbamoyl)benzo[b]thiophen-5-yl)difluoromethyl)phosphoryl)bis (oxy))bis(methylene) bis(2,2-dimethylpropanoate)], the IC50 was at most 0.1 µM in experiment [1] and 1 to 3 µM in experiment [2].

In the case of `CN(CC(C)(C)C#N)C(=O)[C@@H]1CC[C@@H]2CCN(CC(F)F)C[C@H](NC(=O)c3cc4cc(C(F)(F)P(=O)(OCOC(=O)C(C)(C)C)OCOC(=O)C(C)(C)C)ccc4s3)C(=O)N21` [Compound 352, ((((2-(((5S,8S,10aR)-8-((2-cyano-2-methylpropyl)(methyl)carbamoyl)-3-(2,2-difluoroethyl)-6-oxodecahydropyrrolo[1,2-a][1,5]diazocin-5-yl)carbamoyl)benzo[b]thiophen-5-yl)difluoromethyl)phosphoryl)bis (oxy))bis(methylene) bis(2,2-dimethylpropanoate)], the half-inhibitory concentration (IC50) in experiment [1] (Homo sapiens) and in experiment [2] (Homo sapiens) was at most 0.1 µM in each case.

Take `CCN1CC[C@H]2CC[C@@H](C(=O)N3CC(C(=O)N4CCOCC4)C3)N2C(=O)[C@@H](NC(=O)c2cc3cc(C(F)(F)P(=O)(OCOC(=O)C(C)(C)C)OCOC(=O)C(C)(C)C)ccc3s2)C1` [Compound 353, ((((2-(((5S,8S,10aR)-3-ethyl-8-(3-(morpholine-4-carbonyl)azetidine-1-carbonyl)-6-oxodecahydropyrrolo[1,2-a][1,5]diazocin-5-yl)carbamoyl)benzo[b]thiophen-5-yl)difluoromethyl)phosphoryl)bis(oxy)) bis(methylene) bis(2,2-dimethylpropanoate)]: the half-inhibitory concentration (IC50) in experiment [1] (Homo sapiens) was at most 0.1 µM; in experiment [2] (Homo sapiens) it was above 3 µM.

The values are drawn from patent US20250179103A1, “6-OXODECAHYDROPYRROLO[1,2-A][1,5]DIAZOCINE AND 6-OXODECAHYDRO-4H-PYRROLO[2,1-D][1,5]THIAZOCINE DERIVATIVES AS STAT3 AND STAT6 MODULATORS FOR THE TREATMENT OF CANCER AND INFLAMMATORY CONDITIONS” (Recludix Pharma, Inc., priority 2022, published 2025).
